Results reported in patent EP0994104A1, “ARYL (SULFIDE, SULFOXIDE AND SULFONE) DERIVATIVES AND DRUGS CONTAINING THE SAME AS THE ACTIVE INGREDIENT” (ONO PHARMACEUTICAL CO., LTD., priority 1996, dated 1997).

Target: T1, gelatinase A (Homo sapiens, UniProt P08253)
T1 construct: endogenous in cells; host or cells: human normal skin dermal fibroblasts (HNDF)
T1 sequence (P08253 110-660): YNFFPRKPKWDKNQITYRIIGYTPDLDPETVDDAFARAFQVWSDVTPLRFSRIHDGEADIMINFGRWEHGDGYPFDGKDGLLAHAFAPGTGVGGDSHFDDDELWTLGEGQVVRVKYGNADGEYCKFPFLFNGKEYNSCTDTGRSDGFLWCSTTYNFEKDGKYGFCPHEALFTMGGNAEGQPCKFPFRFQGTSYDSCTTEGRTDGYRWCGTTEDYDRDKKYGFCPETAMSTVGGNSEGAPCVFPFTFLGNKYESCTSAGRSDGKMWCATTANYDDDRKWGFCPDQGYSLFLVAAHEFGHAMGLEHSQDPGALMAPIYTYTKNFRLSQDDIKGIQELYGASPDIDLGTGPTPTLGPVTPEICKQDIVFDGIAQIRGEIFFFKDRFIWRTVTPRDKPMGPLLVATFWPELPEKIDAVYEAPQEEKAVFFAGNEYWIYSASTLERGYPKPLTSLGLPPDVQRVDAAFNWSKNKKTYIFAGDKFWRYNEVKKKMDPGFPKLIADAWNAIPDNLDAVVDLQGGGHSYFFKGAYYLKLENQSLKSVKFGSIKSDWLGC
Assay: Inhibitory activity against gelatinase A (FITC-gelatin degradation, fluorescence)
Type: biochemical
Details: progelatinase A purified from human normal skin dermal fibroblasts (HNDF), activated with APMA; 0.05 % FITC-gelatin, 2 hours at 37°C
Description: (1) Inhibitory activity against gelatinase A.
The progelatinase A (7 µl; in assay buffer (90 µl) was purified from human normal skin dermal fibroblasts (HNDF). It was activated by the addition of 10 mM APMA (10 µl) for 1 hour at 37°C. The solution of activated gelatinase A (1 U/tube, 98 µl) was mixed with the solution of various concentrations of the test compound or the solution in which the test compound is not added, (2 µl), and 0.05 % FITC-gelatin (100 µl) and incubated for 2 hours at 37°C. The enzymatic reaction was terminated by the addition of 2 M Tris-HCl (pH 9.5) containing 94.7% ethanol (750 µl). The mixture was stirred and then allowed to stand for 30 minutes at 0°C. The mixture was centrifuged for 30 minutes at 900 x g. Inhibitory activity against gelatinase was determined by measuring the fluorescent intensity in supernatant (Ex = 495 nm, and Em = 520 nm).
In the above experimental method, APMA is p-aminophenylmercuric acetate and FITC is fluorescein isothiocyanate.

| IC50 | Structure (SMILES) |
| --- | --- |
| 540 nM | O=C(O)CCS(=O)(=O)c1ccc(NC(=O)c2ccccc2)cc1 [Example 8(2), 3-[4-(benzoylamino)phenylsulfonyl]propionic acid] |
| 400 nM | O=C(O)CCS(=O)(=O)c1ccc(C#Cc2ccccc2)cc1 [Example 8(7), 3-[4-(phenylethynyl)phenylsulfonyl]propionic acid] |
| 1.4 nM | CC(CS(=O)(=O)c1ccc(-c2cc3ccccc3o2)cc1)C(=O)NO (stereo not drawn) [Example 28(1), N-hydroxy-2-methyl-3-[4-(2-benzofuranyl)phenylsulfonyl]propionamide] |
| 2.9 nM | Cc1ccc(C#Cc2ccc(S(=O)(=O)CC(C)C(=O)NO)cc2)cc1 (stereo not drawn) [Example 28(3), N-hydroxy-2-methyl-3-[4-(4-tolylethynyl)phenylsulfonyl]propionamide] |
| 13 nM | CCCCCC#Cc1ccc(S(=O)(=O)CC(C)C(=O)NO)cc1 (stereo not drawn) [Example 28, N-hydroxy-2-methyl-3-[4-(1-heptynyl)phenylsulfonyl]propionamide] |

| Structure (SMILES) | IC50 |
| --- | --- |
| COc1ccc(S(=O)(=O)CC(NC(=O)C(NC(=O)OC(C)(C)C)c2ccccc2)C(=O)NO)cc1 (stereo not drawn) [Example 19(1), N-hydroxy-2-[N-[N-(t-butoxycarbonyl)phenylglycyl]amino]-3-(4-methoxyphenylsulfonyl)propionamide] | 11 nM |
